Read-outs that look alike come from different tables or passages of the source.
Key:
DCN1 protein = DCN1 protein (Homo sapiens (Human), UniProt Q96GG9); experiment: Intact protein MS analysis with the RapidFire-TOF system (covalent adduct formation); type: binding; conditions: 400 nM DCN1, incubated at room temperature for 3 hours
Method in brief: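 Tag-free His-TEV-DCN1 expressed in E. coli at 400 nM in 25 mM Tris-HCl, 200 mM NaCl, 1 mM DTT, incubated with 11 compound concentrations at room temperature for 3 h unless otherwise specified. Quenched with 0.2% formic acid; intact-protein RapidFire Q-TOF MS, deconvoluted to detect parent and compound-adduct masses.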

[1] = molecular target: DCN1 (DCUND1) protein PONY domain (Homo sapiens (Human), UniProt Q96GG9); experiment: TR-FRET assay (binding to DCN-1, displacement of FAM-labeled probe)
Sequence of DCN1 (DCUND1) protein PONY domain (Q96GG9 60-248): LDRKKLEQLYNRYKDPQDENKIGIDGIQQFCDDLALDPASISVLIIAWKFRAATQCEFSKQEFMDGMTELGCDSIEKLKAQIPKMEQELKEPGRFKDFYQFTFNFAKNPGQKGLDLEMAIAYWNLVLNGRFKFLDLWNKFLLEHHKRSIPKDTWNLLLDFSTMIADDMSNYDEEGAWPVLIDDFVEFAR
Method in brief: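 Compounds read at 1, 5 and 24 h, 0.1% final DMSO, by TR-FRET between terbium-streptavidin on biotinylated DCN1 PONY domain (E. coli) and a FAM-tagged non-covalent inhibitor probe. Two setups used, 5 nM protein with 20 nM labelled probe, or 0.31 nM protein with 100 nM labelled plus 800 nM unlabelled probe; buffer had TritonX and 200 mM NaCl. % activity relative to high (with probe) and low (without probe) controls.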

[2] = 24 hr after treatment with compound, read-out: TR FRET IC50 24 hr
[3] = read-out: TR FRET IC50 1 hr, 1 hr after treatment with compound
[4] = TR FRET IC50 1 hr (nM), 1 hr after treatment with compound

Sequence of DCN1 protein (Q96GG9 whole entry): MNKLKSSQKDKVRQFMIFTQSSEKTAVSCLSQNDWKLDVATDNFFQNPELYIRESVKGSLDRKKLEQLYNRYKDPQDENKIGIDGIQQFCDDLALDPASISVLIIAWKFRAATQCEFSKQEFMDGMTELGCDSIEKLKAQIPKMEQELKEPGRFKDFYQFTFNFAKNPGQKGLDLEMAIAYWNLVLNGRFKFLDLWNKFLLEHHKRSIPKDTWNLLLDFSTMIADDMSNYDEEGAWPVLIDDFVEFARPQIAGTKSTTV

SMILES	Emax (DCN1 protein)	IC50 [1, 2]	IC50 [1, 3]	IC50 [1, 4]
C=C(CN1CC2(COC2)C1)C(=O)NCc1cccc([C@@H]2c3cnn(-c4ccccc4)c3N(CC)C(=O)[C@H]2NC(=O)c2cccc(C(F)(F)F)c2)c1 [Compound I-6]	80 to 100%	≤ 200 nM	≤ 200 nM	–
C=C(CN1CCOCC1)C(=O)NCc1cccc([C@@H]2c3cnn(-c4ccccc4)c3N(CC)C(=O)[C@H]2NC(=O)c2cccc(C(F)(F)F)c2)c1 [Compound I-62]	80 to 100%	≤ 200 nM	≤ 200 nM	–
C=C(CN1CCOCC1)C(=O)NCc1cccc([C@@H]2c3c(C)nn(-c4ccccc4)c3N(CC)C(=O)[C@H]2NC(=O)c2cccc(C(F)(F)F)c2)c1 [Compound I-215]	80 to 100%	≤ 200 nM	≤ 200 nM	–
CCN1C(=O)[C@H](NC(=O)c2cccc(C(F)(F)F)c2)[C@@H](c2cccc(NC(=O)/C(C#N)=C/C(C)(C)C)c2)c2c(C)nn(-c3ccccc3)c21 (racemic) [Compound I-69, ˜{N}—[˜{rac}-(4˜{S},5˜{R})-7-ethyl-3-methyl-6-oxo-1-phenyl-4-[3-[[˜{rac}-(˜{E})-2-cyano-4,4-dimethyl-pent-2-enoyl]amino]phenyl]-4,5-dihydropyrazolo[3,4-b]pyridin-5-yl]-3-(trifluoromethyl)benzamide]	80 to 100%	200 to 1000 nM	–	200 to 1000 nM
CCN1C(=O)[C@H](NC(=O)c2cccc(C(F)(F)F)c2)[C@@H](c2cccc(NC(=O)/C=C/C(=O)OC)c2)c2c(C)nn(-c3ccccc3)c21 (racemic) [Compound I-141]	80 to 100%	≤ 200 nM	≤ 200 nM	–
CCN1C(=O)[C@@H](NC(=O)c2cccc(C(F)(F)F)c2)[C@@H](c2cccc(NC(=O)[C@H](F)Cl)c2)c2c(C)nn(-c3ccccc3)c21 (mixture of isomers) [Compound I-18]	0 to 30%	> 3000 nM	–	> 3000 nM
C=C(CN1CCC1)C(=O)NCc1cccc([C@@H]2c3cnn(-c4ccccc4)c3N(CC)C(=O)[C@H]2NC(=O)c2cccc(C(F)(F)F)c2)c1 [Compound I-1]	80 to 100%	≤ 200 nM	≤ 200 nM	–
C=C(CN1CCN(C2COC2)CC1)C(=O)NCc1cccc([C@@H]2c3cnn(-c4ccccc4)c3N(CC)C(=O)[C@H]2NC(=O)c2cccc(C(F)(F)F)c2)n1 [Compound I-216]	80 to 100%	≤ 200 nM	–	200 to 1000 nM
CCN1C(=O)[C@H](NC(=O)c2cccc(C(F)(F)F)c2)[C@@H](c2cccc(NC(=O)C3=CCC3)c2)c2c(C)nn(-c3ccccc3)c21 (racemic) [Compound I-78, ˜{N}—[˜{rac}-(4˜{S},5˜{R})-4-[3-(cyclobutene-1-carbonylamino)phenyl]-7-ethyl-3-methyl-6-oxo-1-phenyl-4,5-dihydropyrazolo[3,4-b]pyridin-5-yl]-3-(trifluoromethyl)benzamide]	80 to 100%	200 to 1000 nM	–	1000 to 3000 nM
CCN1C(=O)[C@@H](NC(=O)c2nccc(C(F)(F)F)n2)[C@H](c2cccc(NC(=O)C3=CCN(C)C3)c2)c2c(C)nn(-c3ccccc3)c21 [Compound I-224]	80 to 100%	≤ 200 nM	–	200 to 1000 nM
C=C(C(=O)NCc1cccc([C@@H]2c3cnn(-c4ccccc4)c3N(CC)C(=O)[C@H]2NC(=O)c2csc(C(F)(F)F)n2)c1)C(C)(C)N(C)C1COC1 [Compound I-231, N-((4R,5S)-7-ethyl-4-(3-((3-methyl-3-(methyl(oxetan-3-yl)amino)-2-methylenebutanamido)methyl)phenyl)-6-oxo-1-phenyl-4,5,6,7-tetrahydro-1H-pyrazolo[3,4-b]pyridin-5-yl)-2-(trifluoromethyl)thiazole-4-carboxamide]	80 to 100%	≤ 200 nM	≤ 200 nM	–
C=C(CN1CC2(COC2)C1)C(=O)Nc1cccc([C@@H]2c3c(C)nn(-c4ccccc4)c3N(CC)C(=O)[C@H]2NC(=O)c2cccc(C(F)(F)F)c2)c1 (racemic) [Compound I-64]	80 to 100%	≤ 200 nM	≤ 200 nM	–
CCN1C(=O)[C@@H](NC(=O)c2cccc(C(F)(F)F)c2)[C@@H](c2cccc(NC(=O)[C@H](C)Cl)c2)c2c(C)nn(-c3ccccc3)c21 (mixture of isomers) [Compound I-16]	0 to 30%	> 3000 nM	> 3000 nM	–
CCN1C(=O)[C@@H](NC(=O)c2cccc(C(F)(F)F)c2)[C@H](c2cccc(NC(=O)/C=C/CN(C)C)n2)c2cnn(-c3ccccc3)c21 [Compound I-214]	80 to 100%	≤ 200 nM	–	200 to 1000 nM
CCN1C(=O)[C@@H](NC(=O)c2cccc(C(F)(F)F)c2)[C@@H](c2cccc(NC(=O)/C=C/C(F)(F)F)c2)c2c(C)nn(-c3ccccc3)c21 (racemic) [Compound I-27]	0 to 30%	> 3000 nM	–	> 3000 nM
C/C=C(\CN1CCN(C2COC2)CC1)C(=O)Nc1cccc([C@@H]2c3c(C)nn(-c4ccccc4)c3N(CC)C(=O)[C@H]2NC(=O)c2nccc(C(F)(F)F)n2)c1 (racemic) [Compound I-229]	80 to 100%	≤ 200 nM	–	≤ 200 nM
C/C=C(\CN1CCN(C2COC2)CC1)C(=O)NCc1cccc([C@@H]2c3cnn(-c4ccccc4)c3N(CC)C(=O)[C@H]2NC(=O)c2ccn(C(F)(F)F)n2)c1 [Compound I-230A, N-((4R,5S)-7-ethyl-4-(3-(((E)-2-((4-(oxetan-3-yl)piperazin-1-yl)methyl)but-2-enamido)methyl)phenyl)-6-oxo-1-phenyl-4,5,6,7-tetrahydro-1H-pyrazolo[3,4-b]pyridin-5-yl)-1-(trifluoromethyl)-1H-pyrazole-3-carboxamide]	80 to 100%	≤ 200 nM	–	200 to 1000 nM
C=C(CN1CCOCC1)C(=O)NCc1cccc([C@@H]2c3cnn(-c4ccccc4)c3N(CC)C(=O)[C@H]2NC(=O)c2ccnn2C(F)(F)F)c1 [Compound I-86]	0 to 30%	1000 to 3000 nM	–	1000 to 3000 nM
CCN1C(=O)[C@@H](NC(=O)c2cccc(C(F)(F)F)c2)[C@@H](c2cccc(NC#N)c2)c2c(C)nn(-c3ccccc3)c21 (racemic) [Compound I-22]	0 to 30%	> 3000 nM	–	> 3000 nM
C/C=C(\CN1CCN(C2COC2)CC1)C(=O)Nc1cccc([C@@H]2c3cnn(-c4ccccc4)c3N(CC)C(=O)[C@H]2NC(=O)c2nccc(C(F)(F)F)n2)c1 [Compound I-232, N-((4R,5S)-7-ethyl-4-(3-((E)-2-((4-(oxetan-3-yl)piperazin-1-yl)methyl)but-2-enamido)phenyl)-6-oxo-1-phenyl-4,5,6,7-tetrahydro-1H-pyrazolo[3,4-b]pyridin-5-yl)-4-(trifluoromethyl)pyrimidine-2-carboxamide]	80 to 100%	≤ 200 nM	–	≤ 200 nM
C=C(CN1CCOCC1)C(=O)Nc1cccc([C@H]2c3c(C)nn(-c4ccccc4)c3N(CC)C(=O)[C@@H]2NC(=O)c2cccc(C(F)(F)F)c2)c1 (racemic) [Compound I-9, N-[rac-(4S,5R)-7-ethyl-3-methyl-4-[3-[2-(morpholinomethyl)prop-2-enoylamino]phenyl]-6-oxo-1-phenyl-4,5-dihydropyrazolo[3,4-b]pyridin-5-yl]-3-(trifluoromethyl)benzamide]	80 to 100%	≤ 200 nM	–	≤ 200 nM
C=C(CN1CC(F)(F)C1)C(=O)Nc1cccc([C@@H]2c3c(C)nn(-c4ccccc4)c3N(CC)C(=O)[C@H]2NC(=O)c2cccc(C(F)(F)F)c2)c1 (racemic) [Compound I-11]	80 to 100%	≤ 200 nM	≤ 200 nM	–
CCN1C(=O)[C@@H](NC(=O)c2nccc(C(F)(F)F)n2)[C@H](c2cccc(NC(=O)C3=CCN(C4COC4)C3)c2)c2c(C)nn(-c3ccccc3)c21 [Compound I-226]	0 to 30%	200 to 1000 nM	–	1000 to 3000 nM
C=C(CN(C)C)C(=O)Nc1cccc([C@H]2c3c(C)nn(-c4ccccc4)c3N(CC)C(=O)[C@@H]2NC(=O)c2cccc(C(F)(F)F)c2)c1 (racemic) [Compound I-146]	80 to 100%	≤ 200 nM	≤ 200 nM	–
CCN1CC=C(C(=O)Nc2cccc([C@@H]3c4c(C)nn(-c5ccccc5)c4N(CC)C(=O)[C@H]3NC(=O)c3nccc(C(F)(F)F)n3)c2)C1 [Compound I-225]	80 to 100%	–	–	200 to 1000 nM
CCN1C(=O)[C@@H](NC(=O)c2cccc(C(F)(F)F)c2)[C@H](c2cccc(NC(=O)C3=C(C(=O)OC)CC3)c2)c2c(C)nn(-c3ccccc3)c21 [Compound I-34]	80 to 100%	≤ 200 nM	≤ 200 nM	–
CCN1C(=O)[C@H](NC(=O)c2cccc(C(F)(F)F)c2)[C@@H](c2cccc(NC(=O)CC#N)c2)c2c(C)nn(-c3ccccc3)c21 (racemic) [Compound I-103]	0 to 30%	1000 to 3000 nM	–	1000 to 3000 nM
C=C(CN1CCN(C2COC2)CC1)C(=O)NCc1cccc([C@@H]2c3cnn(-c4ccccc4)c3N(CC)C(=O)[C@H]2NC(=O)c2cccc(C(F)(F)F)c2)c1 [Compound I-4]	80 to 100%	≤ 200 nM	≤ 200 nM	–
C=C(C)C(=O)Nc1cccc([C@H]2c3c(C)nn(-c4ccccc4)c3N(CC)C(=O)[C@H]2NC(=O)c2cccc(C(F)(F)F)c2)c1 (racemic) [Compound I-17]	0 to 30%	> 3000 nM	–	> 3000 nM
C=C(CN1CCOCC1)C(=O)NCc1cccc([C@@H]2c3cnn(-c4ccccc4)c3N(CC)C(=O)[C@H]2NC(=O)c2nccc(C(F)(F)F)n2)c1 [Compound I-82]	80 to 100%	≤ 200 nM	≤ 200 nM	–

Reference: US12435087B2, “Modulators of DCN-1 and methods of use thereof” (Cellarity, Inc., priority 2023, dated 2025)
